Legend:
[1] = target: dephosphorylated FGFR1 (SEQ ID NO: 1, amino acids 458 to 765) (Homo sapiens (Human), UniProt P11362); experiment: FGFR enzyme binding assay (HTRF tracer displacement), FGFR1; details: 5 nM dephosphorylated FGFR1, average of multiple determinations if made
Method in brief: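 Kinase and tracer were incubated with compound for 60 minutes at 22° C. Tracer displacement was then measured by HTRF, and results were expressed as POC with 1 μM control inhibitor defining full displacement.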

[2] = target: recombinant human FGFR2 cytoplasmic domain (amino acids 403-822) (Homo sapiens (Human), UniProt P21802); experiment: FGFR2 enzyme activity assay (LanthaScreen TR-FRET); assay type: biochemical; details: 15 μM ATP, 20 min incubation at 22° C., average of multiple determinations if made, read-out: FGFR2 Enz FRET IC50
Method in brief: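 Substrate phosphorylation was read by TR-FRET using Eu-PY20 antibody (60 min, 22 °C) after a 20 min, 22 °C reaction. The reaction used 15 μM ATP, 100 nM fluorescent poly-GT peptide and His-tagged FGFR2 403-822 ([…]) at pH 7.5 with 2% DMSO.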

[3] = target: recombinant human FGFR3 (amino acids R397-T806) (Homo sapiens (Human), UniProt P22607); experiment: FGFR3 enzyme activity assay (LanthaScreen TR-FRET); assay type: biochemical; details: 25 μM ATP, 10 min incubation at 22° C., average of multiple determinations if made, read-out: FGFR3 Enz FRET IC50
Method in brief: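 GST-HIS6-tagged human FGFR3 (R397-T806) was reacted with 100 nM Alexa Fluor 647-Poly-GT substrate and 25 μM ATP plus compound in HEPES/MgCl2/Triton buffer, pH 7.5, 2% DMSO, for 10 min at 22 °C.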

[4] = target: HEK-293 cells transfected with dox-inducible human wild type FGFR3 (Homo sapiens (Human), UniProt P22607); experiment: FGFR3 pFGFR cell assay (ELISA); assay type: cell-based; details: HEK-293 dox-inducible FGFR3, 1 hour compound, 100 ng/ml FGF-acidic
Description: FGFR3 pFGFR Cell Assay: • HEK-293 cells transfected with dox-inducible human wild type FGFR3 (SEQ ID NO: 5) were plated in a collagen or poly-D-lysine coated 96 well flat bottom plates at 4×10^5 cells/well in complete DMEM medium containing 10% FBS and 1 μg/ml doxycycline and allowed to attach for 24 h at 37° C., 5% CO2. Cells were treated with compound using 1:3 serial dilutions with a top final concentration of 5 μM. Compound was incubated on cells for 1 hour at 37° C., 5% CO2. Cells were then stimulated with a final concentration of 100 ng/ml human FGF-acidic for 5 minutes at 37° C., 5% CO2. Medium was removed and cells were lysed with lysis buffer containing phosphatase and protease inhibitors. Phospho FGFR3 was measured by ELISA (R&D Systems cat DYC2719). The ELISA captures total FGFR3 and detects total phospho tyrosine. Optical density was measured for each well using a Versamax reader at a wavelength of 450 nm. 100 POC was determined using no test compounds and 0 POC was determined using a control compound. The POC values were fit to a 4-parameter logistic curve as a function of the concentration of the compound, and the IC50 value is the point where the curve crosses 50 POC.

[5] = target: FGFR1 (SEQ ID NO: 1, amino acids 458-765) (Homo sapiens (Human), UniProt P11362); experiment: LC/MS FGFR1 kobs assay (covalent protein modification); assay type: binding; details: 500 nM FGFR1, 3 μM compound
Method in brief: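 Covalent labeling of FGFR1 kinase domain (aa 458-765) tracked over time by intact-protein LC/MS after formic acid quench. kobs derived by fitting DMSO-normalized percent unmodified FGFR1 to an exponential decay model.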

Sequence of recombinant human FGFR2 cytoplasmic domain (amino acids 403-822) (P21802 402-821): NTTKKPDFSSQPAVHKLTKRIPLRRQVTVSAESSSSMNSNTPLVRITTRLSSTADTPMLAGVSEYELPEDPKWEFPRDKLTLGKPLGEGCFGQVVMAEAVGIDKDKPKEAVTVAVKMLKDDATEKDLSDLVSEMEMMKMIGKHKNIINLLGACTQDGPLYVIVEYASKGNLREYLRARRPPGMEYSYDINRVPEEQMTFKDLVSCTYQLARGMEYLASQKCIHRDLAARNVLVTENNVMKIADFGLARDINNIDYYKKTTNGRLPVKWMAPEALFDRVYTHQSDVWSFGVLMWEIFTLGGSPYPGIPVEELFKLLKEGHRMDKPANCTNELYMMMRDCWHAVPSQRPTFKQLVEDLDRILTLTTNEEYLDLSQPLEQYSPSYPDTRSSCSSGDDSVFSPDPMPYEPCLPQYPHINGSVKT
Sequence of recombinant human FGFR3 (amino acids R397-T806) (P22607 397-806): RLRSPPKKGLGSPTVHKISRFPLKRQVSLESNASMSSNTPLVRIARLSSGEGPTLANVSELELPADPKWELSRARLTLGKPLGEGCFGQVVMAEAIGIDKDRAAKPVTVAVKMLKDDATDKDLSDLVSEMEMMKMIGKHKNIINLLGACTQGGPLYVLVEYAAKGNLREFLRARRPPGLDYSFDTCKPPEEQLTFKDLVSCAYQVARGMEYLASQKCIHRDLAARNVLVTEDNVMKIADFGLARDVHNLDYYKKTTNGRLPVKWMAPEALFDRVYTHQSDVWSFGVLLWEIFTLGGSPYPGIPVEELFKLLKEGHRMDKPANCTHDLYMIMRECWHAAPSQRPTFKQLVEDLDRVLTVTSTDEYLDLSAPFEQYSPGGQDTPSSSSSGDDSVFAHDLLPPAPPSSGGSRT
Sequence of FGFR1 (SEQ ID NO: 1, amino acids 458-765) (P11362 458-765): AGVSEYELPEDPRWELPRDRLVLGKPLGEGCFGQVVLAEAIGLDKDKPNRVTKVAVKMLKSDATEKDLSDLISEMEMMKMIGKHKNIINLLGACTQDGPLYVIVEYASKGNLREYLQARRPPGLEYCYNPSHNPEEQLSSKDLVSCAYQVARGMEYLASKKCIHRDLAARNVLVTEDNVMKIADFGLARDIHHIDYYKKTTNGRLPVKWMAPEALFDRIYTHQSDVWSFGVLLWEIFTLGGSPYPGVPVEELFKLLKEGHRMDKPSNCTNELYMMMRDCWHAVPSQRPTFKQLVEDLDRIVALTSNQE
Sequence of dephosphorylated FGFR1 (SEQ ID NO: 1, amino acids 458 to 765) (P11362 458-765): as above
Sequence of HEK-293 cells transfected with dox-inducible human wild type FGFR3 (P22607 23-806): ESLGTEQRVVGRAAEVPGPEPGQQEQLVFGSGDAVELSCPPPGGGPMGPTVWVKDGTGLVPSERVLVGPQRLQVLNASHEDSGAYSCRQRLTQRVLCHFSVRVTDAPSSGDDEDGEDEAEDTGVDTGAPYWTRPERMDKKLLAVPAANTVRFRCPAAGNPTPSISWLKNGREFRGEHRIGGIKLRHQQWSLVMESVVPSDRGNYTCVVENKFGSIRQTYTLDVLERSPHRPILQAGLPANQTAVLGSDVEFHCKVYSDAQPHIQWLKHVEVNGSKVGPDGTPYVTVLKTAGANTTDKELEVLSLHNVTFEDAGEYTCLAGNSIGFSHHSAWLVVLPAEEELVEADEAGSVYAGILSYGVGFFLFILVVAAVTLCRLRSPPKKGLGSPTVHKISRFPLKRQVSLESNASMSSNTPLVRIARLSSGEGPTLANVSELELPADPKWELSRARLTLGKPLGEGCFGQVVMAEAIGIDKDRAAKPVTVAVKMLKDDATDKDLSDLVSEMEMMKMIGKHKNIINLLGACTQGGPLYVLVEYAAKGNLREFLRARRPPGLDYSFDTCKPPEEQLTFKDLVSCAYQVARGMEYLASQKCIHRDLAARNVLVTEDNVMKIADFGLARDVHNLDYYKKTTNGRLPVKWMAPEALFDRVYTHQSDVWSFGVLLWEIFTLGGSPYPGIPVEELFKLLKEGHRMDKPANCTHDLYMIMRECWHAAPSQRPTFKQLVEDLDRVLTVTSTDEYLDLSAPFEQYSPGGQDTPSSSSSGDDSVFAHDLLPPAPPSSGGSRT

C=CC(=O)N1CC(C(=O)N2CCC(c3ccc(-c4cc(OC)c5c(C#N)cnn5c4)cc3)CC2)C1 [Example 101, 6-(4-(1-(1-acryloylazetidine-3-carbonyl)piperidin-4-yl)phenyl)-4-methoxypyrazolo[1,5-a]pyridine-3-carbonitrile]
IC50 [1]: 42 nM | IC50 [2]: 3 nM | IC50 [3]: 4 nM | IC50 [4]: 69 nM | FGFR1 Enz kobs [5]: 0.00223 min⁻¹

C=CC(=O)N1CC(C(=O)N2CCN(c3ccc(-c4cc(OC)c5c(C#N)cnn5c4)cn3)CC2)C1 [Example 111, 6-(6-(4-(1-acryloylazetidine-3-carbonyl)piperazin-1-yl)pyridin-3-yl)-4-methoxypyrazolo[1,5-a]pyridine-3-carbonitrile]
IC50 [1]: 144 nM | IC50 [2]: 4 nM | IC50 [3]: 3 nM | IC50 [4]: 43 nM | FGFR1 Enz kobs [5]: 0.00263 min⁻¹

C=CC(=O)N1CC(C(=O)N2CCC(n3cc(-c4cc(OC)c5c(Cl)cnn5c4)cn3)CC2)C1 [Example 122, 1-(3-(4-(4-(3-chloro-4-methoxypyrazolo[1,5-a]pyridin-6-yl)-1H-pyrazol-1-yl)piperidine-1-carbonyl)azetidin-1-yl)prop-2-en-1-one]
IC50 [1]: 120 nM | IC50 [2]: 12 nM | IC50 [3]: 9 nM | IC50 [4]: 71 nM | FGFR1 Enz kobs [5]: 0.00127 min⁻¹

C=CC(=O)N1CC(C)(C(=O)N2CCC(n3cc(-c4cc(OC)c5c(Cl)cnn5c4)cn3)CC2)C1 [Example 123, 1-(3-(4-(4-(3-chloro-4-methoxypyrazolo[1,5-a]pyridin-6-yl)-1H-pyrazol-1-yl)piperidine-1-carbonyl)-3-methylazetidin-1-yl)prop-2-en-1-one]
IC50 [1]: 221 nM | IC50 [2]: 13 nM | IC50 [3]: 8 nM | IC50 [4]: 57 nM | FGFR1 Enz kobs [5]: 0.00126 min⁻¹

C=CC(=O)N1CC(OC)(C(=O)N2CCC(n3cc(-c4cc(OC)c5c(Cl)cnn5c4)cn3)CC2)C1 [Example 124, 1-(3-(4-(4-(3-chloro-4-methoxypyrazolo[1,5-a]pyridin-6-yl)-1H-pyrazol-1-yl)piperidine-1-carbonyl)-3-methoxyazetidin-1-yl)prop-2-en-1-one]
IC50 [1]: 119 nM | IC50 [2]: 17 nM | IC50 [3]: 8 nM | IC50 [4]: 24 nM | FGFR1 Enz kobs [5]: 0.00241 min⁻¹

C=CC(=O)N1CC(C(=O)N2CCC(n3cc(-c4cc(OC5CCC5)c5c(C#N)cnn5c4)cn3)CC2)C1 [Example 125, 6-(1-(1-(1-acryloylazetidine-3-carbonyl)piperidin-4-yl)-1H-pyrazol-4-yl)-4-cyclobutoxypyrazolo[1,5-a]pyridine-3-carbonitrile]
IC50 [1]: 13 nM | IC50 [2]: 3 nM | IC50 [3]: 3 nM | IC50 [4]: 9 nM | FGFR1 Enz kobs [5]: 0.00246 min⁻¹

C=CC(=O)N1CC(C(=O)N2CCC(n3cc(-c4cc(OCC)c5c(C#N)cnn5c4)cn3)CC2)C1 [Example 126, 6-(1-(1-(1-acryloylazetidine-3-carbonyl)piperidin-4-yl)-1H-pyrazol-4-yl)-4-ethoxypyrazolo[1,5-a]pyridine-3-carbonitrile]
IC50 [1]: 147 nM | IC50 [2]: 6 nM | IC50 [3]: 5 nM | IC50 [4]: 20 nM | FGFR1 Enz kobs [5]: 0.0028 min⁻¹

C=CC(=O)N1CC(C(=O)N2CCC(n3cc(-c4cc(OC(C)C)c5c(C#N)cnn5c4)cn3)CC2)C1 [Example 127, 6-(1-(1-(1-acryloylazetidine-3-carbonyl)piperidin-4-yl)-1H-pyrazol-4-yl)-4-isopropoxypyrazolo[1,5-a]pyridine-3-carbonitrile]
IC50 [1]: 59 nM | IC50 [2]: 5 nM | IC50 [3]: 3 nM | IC50 [4]: 18 nM | FGFR1 Enz kobs [5]: 0.00133 min⁻¹

C=CC(=O)N1CC(C(=O)N2CCC(n3cc(-c4cc(OCC(C)C)c5c(C#N)cnn5c4)cn3)CC2)C1 [Example 128, 6-(1-(1-(1-acryloylazetidine-3-carbonyl)piperidin-4-yl)-1H-pyrazol-4-yl)-4-isobutoxypyrazolo[1,5-a]pyridine-3-carbonitrile]
IC50 [1]: 38 nM | IC50 [2]: 5 nM | IC50 [3]: 3 nM | IC50 [4]: 28 nM | FGFR1 Enz kobs [5]: 0.00134 min⁻¹

C=CC(=O)N1CC(C(=O)N2CCC(n3cc(-c4cc(C(C)C)c5c(C#N)cnn5c4)cn3)CC2)C1 [Example 129, 6-(1-(1-(1-acryloylazetidine-3-carbonyl)piperidin-4-yl)-1H-pyrazol-4-yl)-4-isopropylpyrazolo[1,5-a]pyridine-3-carbonitrile]
IC50 [1]: 271 nM | IC50 [2]: 9 nM | IC50 [3]: 6 nM | IC50 [4]: 23 nM | FGFR1 Enz kobs [5]: 0.00148 min⁻¹

C=CC(=O)N1CC(C(=O)N2CCC(n3cc(-c4cc(-c5ccc(NC(=O)C6CC6)cc5F)c5c(C#N)cnn5c4)cn3)CC2)C1 [Example 130, N-(4-(6-(1-(1-(1-acryloylazetidine-3-carbonyl)piperidin-4-yl)-1H-pyrazol-4-yl)-3-cyanopyrazolo[1,5-a]pyridin-4-yl)-3-fluorophenyl)cyclopropane-carboxamide]
IC50 [1]: 7 nM | IC50 [2]: 3 nM | IC50 [3]: 2 nM | IC50 [4]: 295 nM | FGFR1 Enz kobs [5]: 0.00132 min⁻¹

C=CC(=O)N1CC(C(=O)N2CCC(n3cc(-c4cc(-c5ccccc5F)c5c(C#N)cnn5c4)cn3)CC2)C1 [Example 131, 6-(1-(1-(1-acryloylazetidine-3-carbonyl)piperidin-4-yl)-1H-pyrazol-4-yl)-4-(2-fluorophenyl)pyrazolo[1,5-a]pyridine-3-carbonitrile]
IC50 [1]: 7 nM | IC50 [2]: 10 nM | IC50 [3]: 4 nM | IC50 [4]: 15 nM | FGFR1 Enz kobs [5]: 0.00146 min⁻¹

C=CC(=O)N1CC(CN2CCC(n3cc(-c4cc(OC)c5c(C#N)cnn5c4)cn3)CC2)C1 [Example 132, 6-(1-(1-((1-acryloylazetidin-3-yl)methyl)piperidin-4-yl)-1H-pyrazol-4-yl)-4-methoxypyrazolo[1,5-a]pyridine-3-carbonitrile]
IC50 [1]: 71 nM | IC50 [2]: 13 nM | IC50 [3]: 8 nM | IC50 [4]: 31 nM | FGFR1 Enz kobs [5]: 0.00146 min⁻¹

C=CC(=O)N1CC(S(=O)(=O)N2CCC(n3cc(-c4cc(OC)c5c(C#N)cnn5c4)cn3)CC2)C1 [Example 134, 6-(1-(1-((1-acryloylazetidin-3-yl)sulfonyl)piperidin-4-yl)-1H-pyrazol-4-yl)-4-methoxypyrazolo[1,5-a]pyridine-3-carbonitrile]
IC50 [1]: 35 nM | IC50 [2]: 16 nM | IC50 [3]: 6 nM | IC50 [4]: 12 nM | FGFR1 Enz kobs [5]: 0.00288 min⁻¹

C#CC(=O)N1CC(C(=O)N2CCC(n3cc(-c4cc(OC)c5c(C#N)cnn5c4)cn3)CC2)C1 [Example 138, 4-methoxy-6-(1-(1-(1-propioloylazetidine-3-carbonyl)piperidin-4-yl)-1H-pyrazol-4-yl)pyrazolo[1,5-a]pyridine-3-carbonitrile]
IC50 [1]: 27 nM | IC50 [2]: 3 nM | IC50 [3]: 2 nM | IC50 [4]: 17 nM | FGFR1 Enz kobs [5]: 0.01359 min⁻¹

COc1cc(-c2cnn(C3CCN(C(=O)C4CN(C(=O)/C=C/CN(C)C)C4)CC3)c2)cn2ncc(C#N)c12 [Example 143, (E)-6-(1-(1-(1-(4-(dimethylamino)but-2-enoyl)azetidine-3-carbonyl)piperidin-4-yl)-1H-pyrazol-4-yl)-4-methoxypyrazolo [1,5-a]pyridine-3-carbonitrile]
IC50 [1]: 33 nM | IC50 [2]: 2 nM | IC50 [3]: 2 nM | IC50 [4]: 527 nM | FGFR1 Enz kobs [5]: 0.00278 min⁻¹

COc1cc(-c2cnn(C3CCN(C(=O)C4CN(C(=O)/C=C/CN5CCCCC5)C4)CC3)c2)cn2ncc(C#N)c12 [Example 145, (E)-4-methoxy-6-(1-(1-(1-(4-(piperidin-1-yl)but-2-enoyl)azetidine-3-carbonyl)piperidin-4-yl)-1H-pyrazol-4-yl)pyrazolo[1,5-a]pyridine-3-carbonitrile]
IC50 [1]: 60 nM | IC50 [2]: 3 nM | IC50 [3]: 3 nM | IC50 [4]: 257 nM | FGFR1 Enz kobs [5]: 0.00179 min⁻¹
